Test results taken from patent publication US4231946A, “14,15-Methylene derivatives of the estrane series and methods for preparing same” (VEB Jenapharm, priority 1978, dated 1980).
Like-named read-outs stand apart in the source and are kept apart here.

How the values were obtained:
[1] = in vivo
From the text: In this context the compound is better than mestranol by a factor of 6.

[2] = tested on: infantile female Wistar rats; test: Uterine activity in infantile female Wistar rats; type: in vivo, Wistar rat; conditions: for Uterine weight (-x): n=10
From the text: (§1) STS 593 was weaker than ethynylestradiol by a factor of 9 in its estrogenic properties as shown by the Allen-Doisy test in ovariectomized mice. The compound was only 7% as active as the standard mestranol in producing a uterine response in infantile rats (Table 3), whereas the antiestrogenic properties exceeded those of clomiphene citrate by a factor of 1.4.
Comparison of uterine activity in infantile female
Wistar rats produced by STS 593 and mestranol

[3] = tested on: infantile male rats; test: Androgenic, anabolic and antiandrogenic effects in infantile male rats; type: in vivo, rat; conditions: orally over 6 days, total doses 0.75-3.0 mg/animal
From the text: (§2) The HE of 97.3% is significant (Table 5).

[4] = General statement on antifertility effects and separation from uterine, estrogenic and antigonadotrophic activities; type: in vivo; conditions: compared to mestranol
[5] = tested on: mice (uterine fresh weight); test: Uterine activity in mice (dose for doubling uterine fresh weight); type: in vivo, mouse; conditions: p.o.
From the text: (§3) Uterine and contraceptive activities produced by selected
(§4) 14,15-methylene-17-ol-estratrienes in mice

[6] = tested on: mice; test: Contraceptive activity in mice, single application on 1st day of gestation; type: in vivo, mouse; conditions: mice, 10 mg/kg p.o., single application
Description: Gestation and nidation inhibition expressed in % were used as parameters for antifertility effects. GHE1 (gestation inhibitory effect) and IHE1 (nidation inhibitory effect) were related to the inhibition of the total of gestations or nidations, GHE2 and IHE2 were related to the inhibition of normal gestations or nidations within each group. […] GHE1, GHE2, IHE1 and IHE2 were calculated using the following formulae: [formula] n=number of females inseminated in each group v=test group
f=average number (x) of all implantations (IHE1) and of normal implantations (IHE2) p. female inseminated within a group, respectively.
For GHE1 and GHE2 the ED (effective doses) for the HE (inhibitory effect) 0%, 50%, and 95% as far as possible were determined by means of the probit analysis. The ED50 for IHE1 and IHE2 were determined graphically.
as §3, §4

[7] = Antiestrogenic properties; conditions: in vivo
From the text: as §1

[8] = tested on: rats (testicular mass); test: Antigonadotrophic activity (testicular mass) in rats; type: in vivo, rat; conditions: for ED50: Rattus norvegicus; for IE %: testicular mass
Description: The effective dose for the HE50 was close to 0.65 mg/kg of body-wt./5 d, while mestranol has the same effect at a dose as low as 0.15 mg/kg of body-wt./5 d.

[9] = tested on: infantile rabbit uteri; test: McPhail test, progestagenic and antiprogestagenic activities in infantile rabbit uteri; type: in vivo
From the text: as §2
Progestagenic and antiprogestagenic activities of STS 593
in infantile rabbit uteri as shown by the McPhail test

[10] = total dose 0.25 mg/kg of body-wt. p.o., n=9
[11] = total dose 0.50 mg/kg of body-wt. p.o., n=10
[12] = total dose 1.00 mg/kg of body-wt. p.o., n=10
[13] = 10 mg/kg p.o. + progesterone 4 mg/animal s.c., over 4 days, n=5

## COc1ccc2c(c1)CC[C@@H]1[C@@H]2CC[C@]2(C)[C@@H](O)C[C@H]3C[C@@]312 [STS 593, 3-methoxy-14β,15β-methylene-estra-1,3,5(10)-triene-17β-ol]
[1]
  Separation of contraceptive activity and undesirable post implantation fetal damage (in words): favorable separation
  Separation of contraceptive activity and undesirable post implantation fetal damage: factor better than mestranol: 6 factor
[2]; infantile rats
  Uterine response, activity relative to mestranol: 7%
[2]; total dose 0.1 per animal over 3 days p.o.
  Uterine weight (-x): 27.63 mg
[2]; total dose 1.0 per animal over 3 days p.o.
  Uterine weight (-x): 52.40 mg
[2]; total dose 10.0 per animal over 3 days p.o.
  Uterine weight (-x): 75.90 mg
[3]
  Anabolic effects: did not show any
  Androgenic effects: did not show any
  Antiandrogenic effects: did not show any
[4]
  Separation of contraceptive properties and undesirable (estrogenic, antigonadotrophic, progestagenic) side-effects vs mestranol: more favorable separation
[5]
  Total dose for doubling uterine fresh weight: 0.45 μg/animal
[6]
  THE, % after single application of 10 mg/kg of body-wt. on the 1st day of gestation p.o.: 80.2%
[7]
  Antiestrogenic properties: factor exceeding clomiphene citrate: 1.4 factor
[7]; listed as 3-methoxy-14β,15β-methylene-estra-1,3,5(10)-triene-17β-ol
  Antiestrogenic properties (in words): marked antiestrogenic properties
[7]; listed as 3-methoxy-14β-15β-methylene-estra-1,3,5(10)-triene-17β-ol
  Antiestrogenic properties (in words): produces antiestrogenic and antiprogestagenic effects
[8]; 120 h, rats, read-out: Effective dose for the HE50, antigonadotrophic
  ED50: ~0.65 mg/kg
[8]; po, antigonadotrophic, total dose p.o., read-out: HE 50 (the source's name)
  ED50: 0.65 mg/kg
[8]; rats
  Antigonadotrophic effect compared to mestranol: four times weaker than mestranol
[8]; [10]
  IE %: 18.1%
  Testicular mass (-x ± s-x): 312.4 ± 42.5 mg
[8]; [11]
  IE %: 39.6%
  Testicular mass (-x ± s-x): 272.3 ± 37.7 mg
[8]; [12]
  IE %: 68.9%
  Testicular mass (-x ± s-x): 217.6 ± 24.2 mg
[9]; 2 mg/kg p.o. + progesterone 4 mg/animal s.c., over 4 days, n=6
  McPhail index (-x): 3.8
[9]; 2 mg/kg p.o. alone, total dose over 4 days, n=5
  McPhail index (-x): 0
[9]; [13]
  HE %: 26.7%
  McPhail index (-x): 2.2
[9]; 50 mg/kg p.o. + progesterone 4 mg/animal s.c., over 4 days, n=6
  McPhail index (-x): 0.08
[9]; 50 mg/kg p.o. + progesterone 4 mg/animal s.c., over 4 days, significant
  HE %: 97.3%
[9]; rabbit, in vivo
  Antiprogestagenic effects (in words): produces antiestrogenic and antiprogestagenic effects
  Progestagenic activity: lacking in progestagenic activity
[9]; rabbits, oral, 50 mg/kg
  Antiprogestagenic properties: showed antiprogestanenic properties
